# Target: T1, human cathepsin S (CatS) (Homo sapiens, UniProt P25774)
# T1 construct: made in house; host or cells: baculovirus system (insect cells)
# Assay: Recombinant human cathepsin S (CatS) fluorogenic substrate inhibition assay
# Type: biochemical
# Conditions: not given
# Description: Recombinant human cathepsin S (CatS) was expressed in the baculovirus system and purified in one step with a thiopropyl-sepharose column. […] The assay is run in 150 mM sodium acetate pH 5.0 containing 1.5 mM DTT and 150 mM NaCl. […] Measurements are taken every min for 20 min. The rate is calculated from the slope of the increase in fluorescence and the percent inhibition is calculated from this.
# T1 sequence (P25774 115-331): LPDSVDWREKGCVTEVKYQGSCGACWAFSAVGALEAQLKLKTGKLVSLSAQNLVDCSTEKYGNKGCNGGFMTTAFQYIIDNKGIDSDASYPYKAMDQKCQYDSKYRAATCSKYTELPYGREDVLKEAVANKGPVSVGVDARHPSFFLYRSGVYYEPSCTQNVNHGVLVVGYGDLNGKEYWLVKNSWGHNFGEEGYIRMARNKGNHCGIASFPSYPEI
row,IC50,Compound
1,20 nM,"COc1ccccc1C1CCN(CC(O)Cn2nc(-c3ccc(C(F)(F)F)c(CNC(=O)CC(C)C)c3)c3c2CCN(S(C)(=O)=O)C3)CC1 (stereo not drawn) [Example 259, N-[5-(1-{2-Hydroxy-3-[4-(2-methoxy-phenyl)-piperidin-1-yl]-propyl}-5-methanesulfonyl-4,5,6,7-tetrahydro-1H-pyrazolo[4,3-c]pyridin-3-yl)-2-trifluoromethyl-benzyl]-3-methyl-butyramide]"

# Same assay, conditions: recombinant human CatS, 10 μM Z-Valine-Valine-Arginine-AMC, pH 5.0; average of results obtained; read-out: CatS IC50
row,Compound,IC50
1,"CC(C)CC(=O)NCc1cc(-c2nn(CC(O)CN3CCC(C(=O)N4CCOCC4)CC3)c3c2CN(S(C)(=O)=O)CC3)ccc1C(F)(F)F (stereo not drawn) [Example 260, N-[5-(1-{2-Hydroxy-3-[4-(morpholine-4-carbonyl)-piperidin-1-yl]-propyl}-5-methanesulfonyl-4,5,6,7-tetrahydro-1H-pyrazolo[4,3-c]pyridin-3-yl)-2-trifluoromethyl-benzyl]-3-methyl-butyramide]",120 nM
2,"COc1ccccc1C1CCN(CC(O)Cn2nc(-c3ccc(C(F)(F)F)c(CNC(=O)C=C(C)C)c3)c3c2CCN(S(C)(=O)=O)C3)CC1 (stereo not drawn) [Example 264, 3-Methyl-but-2-enoic acid 5-(1-{2-hydroxy-3-[4-(2-methoxy-phenyl)-piperidin-1-yl]-propyl}-5-methanesulfonyl-4,5,6,7-tetrahydro-1H-pyrazolo[4,3-c]pyridin-3-yl)-2-trifluoromethyl-benzylamide]",10 nM
3,"CC(C)=CC(=O)NCc1cc(-c2nn(CC(O)CN3CCC(O)(c4ccccn4)CC3)c3c2CN(S(C)(=O)=O)CC3)ccc1C(F)(F)F (stereo not drawn) [Example 266, 3-Methyl-but-2-enoic acid 5-{1-[2-hydroxy-3-(4′-hydroxy-3′,4′,5′,6′-tetrahydro-2′H-[2,4′]bipyridinyl-1′-yl)-propyl]-5-methanesulfonyl-4,5,6,7-tetrahydro-1H-pyrazolo[4,3-c]pyridin-3-yl}-2-trifluoromethyl-benzylamide]",10 nM
4,"CC(C)=CC(=O)NCc1cc(-c2nn(CC(O)CN3CCC(c4c[nH]c5ncccc45)CC3)c3c2CN(S(C)(=O)=O)CC3)ccc1C(F)(F)F (stereo not drawn) [Example 272, 3-Methyl-but-2-enoic acid 5-(1-{2-hydroxy-3-[4-(1H-pyrrolo[2,3-b]pyridin-3-yl)-piperidin-1-yl]-propyl}-5-methanesulfonyl-4,5,6,7-tetrahydro-1H-pyrazolo[4,3-c]pyridin-3-yl)-2-trifluoromethyl-benzylamide]",20 nM
5,"CS(=O)(=O)N1CCc2c(c(-c3ccc(C(F)(F)F)c(CNC(=O)C4CC4)c3)nn2CC(O)CN2CCC(N3CCCC3=O)CC2)C1 (stereo not drawn) [Example 276, Cyclopropanecarboxylic acid 5-(1-{2-hydroxy-3-[4-(2-oxo-pyrrolidin-1-yl)-piperidin-1-yl]-propyl}-5-methanesulfonyl-4,5,6,7-tetrahydro-1H-pyrazolo[4,3-c]pyridin-3-yl)-2-trifluoromethyl-benzylamide]",90 nM
6,"CC(C)CC(=O)NCc1cc(-c2nn(CC(O)CN3CCC(c4nnn[nH]4)CC3)c3c2CN(S(C)(=O)=O)CC3)ccc1C(F)(F)F (stereo not drawn) [Example 277, N-[5-(1-{2-Hydroxy-3-[4-(1H-tetrazol-5-yl)-piperidin-1-yl]-propyl}-5-methanesulfonyl-4,5,6,7-tetrahydro-1H-pyrazolo[4,3-c]pyridin-3-yl)-2-trifluoromethyl-benzyl]-3-methyl-butyramide]",140 nM
7,"CC(C)CCNCc1cc(-c2nn(CC(O)CN3CCC(N4CCOCC4)CC3)c3c2CN(S(C)(=O)=O)CC3)ccc1C(F)(F)F (stereo not drawn) [Example 282, 1-(5-Methanesulfonyl-3-{3-[(3-methyl-butylamino)-methyl]-4-trifluoromethyl-phenyl}-4,5,6,7-tetrahydro-pyrazolo[4,3-c]pyridin-1-yl)-3-(4-morpholin-4-yl-piperidin-1-yl)-propan-2-ol]",860 nM

# The next lines start with the values.
row,IC50,Compound
1,10 nM,"CC(C)=CC(=O)NCc1cc(-c2nn(CC(O)CN3CCN(c4ncccc4Cl)CC3)c3c2CN(S(C)(=O)=O)CC3)ccc1C(F)(F)F (stereo not drawn) [Example 262, 3-Methyl-but-2-enoic acid 5-(1-{3-[4-(3-chloro-pyridin-2-yl)-piperazin-1-yl]-2-hydroxy-propyl}-5-methanesulfonyl-4,5,6,7-tetrahydro-1H-pyrazolo[4,3-c]pyridin-3-yl)-2-trifluoromethyl-benzylamide]"
2,10 nM,"CC(C)=CC(=O)NCc1cc(-c2nn(CC(O)CN3CCC(c4ccccn4)CC3)c3c2CN(S(C)(=O)=O)CC3)ccc1C(F)(F)F (stereo not drawn) [Example 263, 3-Methyl-but-2-enoic acid 5-{1-[2-hydroxy-3-(3′,4′,5′,6′-tetrahydro-2′H-[2,4′]bipyridinyl-1′-yl)-propyl]-5-methanesulfonyl-4,5,6,7-tetrahydro-1H-pyrazolo[4,3-c]pyridin-3-yl}-2-trifluoromethyl-benzylamide]"
3,10 nM,"CC(C)=CC(=O)NCc1cc(-c2nn(CC(O)CN3CCN(c4c(Cl)cncc4Cl)CC3)c3c2CN(S(C)(=O)=O)CC3)ccc1C(F)(F)F (stereo not drawn) [Example 265, 3-Methyl-but-2-enoic acid 5-(1-{3-[4-(3,5-dichloro-pyridin-4-yl)-piperazin-1-yl]-2-hydroxy-propyl}-5-methanesulfonyl-4,5,6,7-tetrahydro-1H-pyrazolo[4,3-c]pyridin-3-yl)-2-trifluoromethyl-benzylamide]"
4,10 nM,"CC(C)=CC(=O)NCc1cc(-c2nn(CC(O)CN3CCC(n4cn[nH]c4=O)CC3)c3c2CN(S(C)(=O)=O)CC3)ccc1C(F)(F)F (stereo not drawn) [Example 268, 3-Methyl-but-2-enoic acid 5-(1-{2-hydroxy-3-[4-(5-oxo-1,5-dihydro-[1,2,4]triazol-4-yl)-piperidin-1-yl]-propyl}-5-methanesulfonyl-4,5,6,7-tetrahydro-1H-pyrazolo[4,3-c]pyridin-3-yl)-2-trifluoromethyl-benzylamide]"
5,10 nM,"CC(C)=CC(=O)NCc1cc(-c2nn(CC(O)CN3CCC(c4nc(=O)[nH][nH]4)CC3)c3c2CN(S(C)(=O)=O)CC3)ccc1C(F)(F)F (stereo not drawn) [Example 270, 3-Methyl-but-2-enoic acid 5-(1-{2-hydroxy-3-[4-(5-oxo-2,5-dihydro-1H-[1,2,4]triazol-3-yl)-piperidin-1-yl]-propyl}-5-methanesulfonyl-4,5,6,7-tetrahydro-1H-pyrazolo[4,3-c]pyridin-3-yl)-2-trifluoromethyl-benzylamide]"
6,10 nM,"CC(C)=CC(=O)NCc1cc(-c2nn(CC(O)CN3CCC(c4ccccc4)CC3)c3c2CN(S(C)(=O)=O)CC3)ccc1C(F)(F)F (stereo not drawn) [Example 274, 3-Methyl-but-2-enoic acid 5-{1-[2-hydroxy-3-(4-phenyl-piperidin-1-yl)-propyl]-5-methanesulfonyl-4,5,6,7-tetrahydro-1H-pyrazolo[4,3-c]pyridin-3-yl}-2-trifluoromethyl-benzylamide]"
7,10 nM,"CC(C)=CC(=O)NCc1cc(-c2nn(CC(O)CN3CCC(c4cccc(O)c4)CC3)c3c2CN(S(C)(=O)=O)CC3)ccc1C(F)(F)F (stereo not drawn) [Example 275, 3-Methyl-but-2-enoic acid 5-(1-{2-hydroxy-3-[4-(3-hydroxy-phenyl)-piperidin-1-yl]-propyl}-5-methanesulfonyl-4,5,6,7-tetrahydro-1H-pyrazolo[4,3-c]pyridin-3-yl)-2-trifluoromethyl-benzylamide]"

# Source: patent US20080269241A1, “BICYCLIC AMINOPROPYL TETRAHYDRO-PYRAZOLO-PYRIDINE MODULATORS OF CATHEPSIN S” (priority 2007, published 2008)
